In the supplement of paper PMC10307832:

The cell lines below were run with N[C@@H]1CCCN(c2c(/C=C3\SC(=O)NC3=O)cccc2-c2ccccc2)C1 [AZD1208] + Cc1nc(Nc2ncc(C(=O)Nc3c(C)cccc3Cl)s2)cc(N2CCN(CCO)CC2)n1 [Dasatinib] (partner 0.075 µM) (assay: relative viability (nuclei count vs DMSO), 5 days (fraction); higher = more cells survive). Conditions: first compound 0.08 µM.
Procedure, shortened: (§1)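 Relative viability was taken as the ratio of nuclei in treated wells to nuclei in vehicle wells. Lung cancer cell lines in 1536-well plates received compounds by pin tool one day after seeding, either one drug alone or a fixed anchor-drug dose plus five library-drug doses (not always all listed) in √10 steps. Nuclei were counted on 4× images after 5 days of treatment, and values are medians of duplicate plates.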

Cell Line | relative viability
LU99A | 0.451
BEN | 0.334
HARA | 0.284
HCC-78 | 0.421
NCI-H441 | 0.593
LCLC-97TM1 | 0.88
NCI-H2023 | 0.506
A-427 | 0.553

Same assay, conditions: first compound 0.253 µM

Cell Line | relative viability
H3255 | 0.413
COR-L23 | 0.508
COR-L 105 | 0.34
LOU-NH91 | 0.551
ChaGo-K-1 | 0.624
NCI-H3122 | 0.75
HOP-62 | 0.712
LU99A | 0.556
BEN | 0.243
HARA | 0.273
HCC-78 | 0.439
NCI-H441 | 0.486
LCLC-97TM1 | 0.827
NCI-H2023 | 0.614
A-427 | 0.644

Same assay, conditions: first compound 0.8 µM

Cell Line | relative viability
H3255 | 0.362
COR-L23 | 0.479
COR-L 105 | 0.308
LOU-NH91 | 0.496
ChaGo-K-1 | 0.518
NCI-H3122 | 0.642
HOP-62 | 0.541
LU99A | 0.363
BEN | 0.285
HARA | 0.236
HCC-78 | 0.328
NCI-H441 | 0.425
LCLC-97TM1 | 0.82
NCI-H2023 | 0.457
A-427 | 0.531

Same assay, conditions: first compound 2.53 µM

Cell Line | relative viability
H3255 | 0.385
COR-L23 | 0.452
LOU-NH91 | 0.496
ChaGo-K-1 | 0.539
NCI-H3122 | 0.618
HOP-62 | 0.572
LU99A | 0.572
BEN | 0.299
HARA | 0.261
HCC-78 | 0.35
NCI-H441 | 0.55
LCLC-97TM1 | 0.631
NCI-H2023 | 0.472
A-427 | 0.659

Same assay, conditions: first compound 8 µM

Cell Line | relative viability
H3255 | 0.43
COR-L23 | 0.523
COR-L 105 | 0.356
LOU-NH91 | 0.491
ChaGo-K-1 | 0.514
NCI-H3122 | 0.0921
HOP-62 | 0.647
LU99A | 0.389
BEN | 0.314
HARA | 0.284
HCC-78 | 0.34
NCI-H441 | 0.437
LCLC-97TM1 | 0.891
NCI-H2023 | 0.493
A-427 | 0.431

What follows are cell lines tested with N[C@@H]1CCCN(c2c(/C=C3\SC(=O)NC3=O)cccc2-c2ccccc2)C1 [AZD1208] + O=C(CCCCCCC(=O)Nc1ccccc1)NO [Vorinostat] (partner 1 µM) in the same assay as above. Conditions: first compound 0.08 µM.
Procedure, shortened: as §1

Cell Line | relative viability
H3255 | 0.831
COR-L23 | 0.488
COR-L 105 | 1.04
LOU-NH91 | 0.965
ChaGo-K-1 | 0.732
NCI-H3122 | 0.97
HOP-62 | 0.657
LU99A | 0.471
BEN | 0.61
HARA | 0.489
HCC-78 | 0.435
NCI-H441 | 0.742
LCLC-97TM1 | 0.64
NCI-H2023 | 0.627
A-427 | 0.873

Same assay, conditions: first compound 0.253 µM

Cell Line | relative viability
H3255 | 0.869
COR-L23 | 0.401
COR-L 105 | 0.833
LOU-NH91 | 0.955
ChaGo-K-1 | 0.831
NCI-H3122 | 0.943
HOP-62 | 0.856
LU99A | 0.618
BEN | 0.584
HARA | 0.486
HCC-78 | 0.444
NCI-H441 | 0.757
LCLC-97TM1 | 0.99
NCI-H2023 | 0.769
A-427 | 0.913

Same assay, conditions: first compound 0.8 µM

Cell Line | relative viability
H3255 | 0.772
COR-L23 | 0.49
COR-L 105 | 0.898
LOU-NH91 | 0.864
ChaGo-K-1 | 0.557
NCI-H3122 | 0.924
HOP-62 | 0.6
LU99A | 0.481
BEN | 0.49
HARA | 0.451
HCC-78 | 0.413
NCI-H441 | 0.62
LCLC-97TM1 | 0.623
NCI-H2023 | 0.517
A-427 | 0.836

Same assay, conditions: first compound 2.53 µM

Cell Line | relative viability
H3255 | 0.747
COR-L23 | 0.433
COR-L 105 | 0.832
LOU-NH91 | 0.838
ChaGo-K-1 | 0.637
NCI-H3122 | 1.05
HOP-62 | 0.455
LU99A | 0.467
BEN | 0.503
HARA | 0.515
HCC-78 | 0.403
NCI-H441 | 0.616
LCLC-97TM1 | 0.442
NCI-H2023 | 0.689
A-427 | 0.906

Same assay, conditions: first compound 8 µM

Cell Line | relative viability
H3255 | 0.74
COR-L23 | 0.41
COR-L 105 | 0.779
LOU-NH91 | 0.865
ChaGo-K-1 | 0.608
NCI-H3122 | 0.524
HOP-62 | 0.572
LU99A | 0.332
BEN | 0.427
HARA | 0.546
HCC-78 | 0.37
NCI-H441 | 0.711
LCLC-97TM1 | 0.54
NCI-H2023 | 0.571
A-427 | 0.828
